According to PubChem BioAssay (NCI):
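These data come from cells grown in 96-well plates and exposed to compound for 48 hours at five concentrations. Here, GI50 denotes the concentration required for 50% inhibition of growth. Definition used: TGI = concentration required for complete inhibition of growth.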

Columns and labels:
Assay in all cases: NCI tumour cell line growth inhibition, 48 h
NCI-H522 lung = tested on: NCI-H522 lung
HS 578T breast = tested on: HS 578T breast
HCT-15 colon = tested on: HCT-15 colon
KM12 colon = tested on: KM12 colon
CAKI-1 renal = tested on: CAKI-1 renal
SN12C renal = tested on: SN12C renal
NCI-H460 lung = tested on: NCI-H460 lung
DU-145 prostate = tested on: DU-145 prostate
SK-MEL-2 melanoma = tested on: SK-MEL-2 melanoma
SNB-75 CNS = tested on: SNB-75 CNS
A498 renal = tested on: A498 renal
SR leukemia = tested on: SR leukemia
HT29 colon = tested on: HT29 colon
LOX IMVI melanoma = tested on: LOX IMVI melanoma
U251 CNS = tested on: U251 CNS
PC-3 prostate = tested on: PC-3 prostate
OVCAR-4 ovarian = tested on: OVCAR-4 ovarian
NCI-H23 lung = tested on: NCI-H23 lung
HCC-2998 colon = tested on: HCC-2998 colon
K-562 leukemia = tested on: K-562 leukemia
UACC-62 melanoma = tested on: UACC-62 melanoma
SF-268 CNS = tested on: SF-268 CNS
HOP-92 NSCLC = tested on: HOP-92 NSCLC
MDA-MB-231 breast = tested on: MDA-MB-231 breast
SK-OV-3 ovarian = tested on: SK-OV-3 ovarian
CCRF-CEM leukemia = tested on: CCRF-CEM leukemia
UACC-257 melanoma = tested on: UACC-257 melanoma
786-0 renal = tested on: 786-0 renal
HL-60(TB) leukemia = tested on: HL-60(TB) leukemia
MDA-MB-435 = tested on: MDA-MB-435
M14 melanoma = tested on: M14 melanoma
EKVX NSCLC = tested on: EKVX NSCLC
OVCAR-8 ovarian = tested on: OVCAR-8 ovarian
UO-31 renal = tested on: UO-31 renal
COLO 205 colon = tested on: COLO 205 colon
MCF7 breast = tested on: MCF7 breast
SF-539 CNS = tested on: SF-539 CNS
SK-MEL-28 melanoma = tested on: SK-MEL-28 melanoma
OVCAR-5 ovarian = tested on: OVCAR-5 ovarian
SNB-19 CNS = tested on: SNB-19 CNS
TK-10 renal = tested on: TK-10 renal
RXF 393 renal = tested on: RXF 393 renal
MOLT-4 leukemia = tested on: MOLT-4 leukemia
ACHN renal = tested on: ACHN renal
NCI-H226 lung = tested on: NCI-H226 lung
NCI/ADR-RES ovarian = tested on: NCI/ADR-RES ovarian
MALME-3M melanoma = tested on: MALME-3M melanoma
SF-295 CNS = tested on: SF-295 CNS
T-47D breast = tested on: T-47D breast
IGROV1 ovarian = tested on: IGROV1 ovarian
BT-549 breast = tested on: BT-549 breast
A549 NSCLC = tested on: A549 NSCLC
SK-MEL-5 melanoma = tested on: SK-MEL-5 melanoma
HCT-116 colon = tested on: HCT-116 colon
SW-620 colon = tested on: SW-620 colon
RPMI-8226 leukemia = tested on: RPMI-8226 leukemia
HOP-62 NSCLC = tested on: HOP-62 NSCLC
OVCAR-3 ovarian = tested on: OVCAR-3 ovarian

Structure (SMILES): CC(C)=CCC/C(C)=C/CC/C(C)=C/CC/C=C(\C)CC/C=C(\C)CCC(=O)Nc1ccn(C2OC(CO)C(O)C2(F)F)c(=O)n1 (centres undefined)
- GI50 (NCI-H522 lung): 0.0854 µM
- TGI (NCI-H522 lung): 5.83 µM
- GI50 (HS 578T breast): 10.3 µM
- TGI (HS 578T breast): 35.2 µM
- GI50 (HCT-15 colon): 0.691 µM
- TGI (HCT-15 colon): 28 µM
- GI50 (KM12 colon): 0.181 µM
- TGI (KM12 colon): 18.1 µM
- GI50 (CAKI-1 renal): 0.042 µM
- TGI (CAKI-1 renal): 9.85 µM
- GI50 (SN12C renal): 0.326 µM
- TGI (SN12C renal): 13.1 µM
- GI50 (NCI-H460 lung): 0.0444 µM
- TGI (NCI-H460 lung): 3.74 µM
- GI50 (DU-145 prostate): 0.0455 µM
- TGI (DU-145 prostate): 3.23 µM
- GI50 (SK-MEL-2 melanoma): 0.0183 µM
- TGI (SK-MEL-2 melanoma): 1.28 µM
- GI50 (SNB-75 CNS): 3 µM
- TGI (SNB-75 CNS): 23.3 µM
- GI50 (A498 renal): 0.0695 µM
- TGI (A498 renal): 18.5 µM
- GI50 (SR leukemia): 0.0391 µM
- TGI (SR leukemia): 0.374 µM
- GI50 (HT29 colon): 0.594 µM
- TGI (HT29 colon): 48.9 µM
- GI50 (LOX IMVI melanoma): 0.347 µM
- TGI (LOX IMVI melanoma): 14.5 µM
- GI50 (U251 CNS): 0.0884 µM
- TGI (U251 CNS): 16.1 µM
- GI50 (PC-3 prostate): 1.19 µM
- TGI (PC-3 prostate): 20.5 µM
- GI50 (OVCAR-4 ovarian): 1.91 µM
- TGI (OVCAR-4 ovarian): 8.67 µM
- GI50 (NCI-H23 lung): 0.0324 µM
- TGI (NCI-H23 lung): 12.4 µM
- GI50 (HCC-2998 colon): 0.9 µM
- TGI (HCC-2998 colon): 23 µM
- GI50 (K-562 leukemia): 0.989 µM
- TGI (K-562 leukemia): 24.9 µM
- GI50 (UACC-62 melanoma): 0.287 µM
- TGI (UACC-62 melanoma): 15.2 µM
- GI50 (SF-268 CNS): 0.0853 µM
- TGI (SF-268 CNS): 3.51 µM
- GI50 (HOP-92 NSCLC): 0.435 µM
- TGI (HOP-92 NSCLC): 11.5 µM
- GI50 (MDA-MB-231 breast): 12.8 µM
- TGI (MDA-MB-231 breast): 27.1 µM
- GI50 (SK-OV-3 ovarian): 0.0644 µM
- TGI (SK-OV-3 ovarian): 13.8 µM
- GI50 (CCRF-CEM leukemia): 0.0639 µM
- TGI (CCRF-CEM leukemia): 0.525 µM
- GI50 (UACC-257 melanoma): 0.252 µM
- TGI (UACC-257 melanoma): 8.22 µM
- GI50 (786-0 renal): < 0.0157 µM
- TGI (786-0 renal): < 0.0341 µM
- GI50 (HL-60(TB) leukemia): 0.0618 µM
- TGI (HL-60(TB) leukemia): 0.539 µM
- GI50 (MDA-MB-435): 0.144 µM
- TGI (MDA-MB-435): 7.58 µM
- GI50 (M14 melanoma): 0.0519 µM
- TGI (M14 melanoma): 1.2 µM
- GI50 (EKVX NSCLC): 0.112 µM
- TGI (EKVX NSCLC): 17 µM
- GI50 (OVCAR-8 ovarian): 0.0652 µM
- TGI (OVCAR-8 ovarian): > 100 µM
- GI50 (UO-31 renal): 0.0501 µM
- TGI (UO-31 renal): 14.7 µM
- GI50 (COLO 205 colon): 0.0982 µM
- TGI (COLO 205 colon): 12.6 µM
- GI50 (MCF7 breast): < 0.011 µM
- TGI (MCF7 breast): 4.34 µM
- GI50 (SF-539 CNS): 0.0268 µM
- TGI (SF-539 CNS): 0.475 µM
- GI50 (SK-MEL-28 melanoma): 2.64 µM
- TGI (SK-MEL-28 melanoma): 21.9 µM
- GI50 (OVCAR-5 ovarian): 1.21 µM
- TGI (OVCAR-5 ovarian): 26.3 µM
- GI50 (SNB-19 CNS): 0.0245 µM
- TGI (SNB-19 CNS): 11.7 µM
- GI50 (TK-10 renal): 3.05 µM
- TGI (TK-10 renal): 18.8 µM
- GI50 (RXF 393 renal): 1.09 µM
- TGI (RXF 393 renal): 7.15 µM
- GI50 (MOLT-4 leukemia): 0.0743 µM
- TGI (MOLT-4 leukemia): 1.5 µM
- GI50 (ACHN renal): 0.0266 µM
- TGI (ACHN renal): 11.2 µM
- GI50 (NCI-H226 lung): 2.5 µM
- TGI (NCI-H226 lung): 20.4 µM
- GI50 (NCI/ADR-RES ovarian): 0.116 µM
- TGI (NCI/ADR-RES ovarian): 16.6 µM
- GI50 (MALME-3M melanoma): 0.438 µM
- TGI (MALME-3M melanoma): 6.71 µM
- GI50 (SF-295 CNS): 0.0329 µM
- TGI (SF-295 CNS): 0.154 µM
- GI50 (T-47D breast): 0.089 µM
- TGI (T-47D breast): 11.8 µM
- GI50 (IGROV1 ovarian): 0.142 µM
- TGI (IGROV1 ovarian): 11.1 µM
- TGI (BT-549 breast): 0.472 µM
- GI50 (A549 NSCLC): 0.344 µM
- TGI (A549 NSCLC): 28.3 µM
- GI50 (SK-MEL-5 melanoma): 0.168 µM
- TGI (SK-MEL-5 melanoma): 4.75 µM
- GI50 (HCT-116 colon): 0.0314 µM
- TGI (HCT-116 colon): 1.14 µM
- GI50 (SW-620 colon): 0.48 µM
- TGI (SW-620 colon): 21.4 µM
- GI50 (RPMI-8226 leukemia): 0.122 µM
- TGI (RPMI-8226 leukemia): 2.49 µM
- GI50 (HOP-62 NSCLC): 0.0507 µM
- TGI (HOP-62 NSCLC): 2.38 µM
- TGI (OVCAR-3 ovarian): 4.48 µM
